Patent US20140005164A1, “WNT PATHWAY ANTAGONISTS” (Siena Biotech S.p.A., priority 2011, published 2014)

Tested on: Wnt/β-catenin pathway
Assay: Wnt reporter assay (TCF-Luciferase, Firefly) in DBTRG-05MG cells
Format: cell-based
Details: Homo sapiens, 24 h, read-out: IC50 value in the reporter assay
Description: Three copies of a 4×TCF responsive elements were cloned into the pcDNA3.1/Zeo(+) vector (Invitrogen) after deletion of the constitutive CMV promoter and the insertion of the Firefly Luciferase from Promega (phFL-TK) to measure the activity of the Wnt/β-catenin pathway. The resulting plasmid was sequenced for quality control.
Cells were grown in 20 μg/ml Zeocin and 20 μg/ml Zeocin plus 30 μg/ml Hygromicin respectively. The cells were plated at a density of 6500 cells/well in poly-D-lysine pre-treated 96 well-plates.
36 hours after plating cells were incubated with 8-points dilutions compound (0.6% DMSO (v/v)). Each compound was tested in triplicate in single plate. Luciferase detection was done with Dual-Luciferase Reporter Assay System (Promega). 24 hours after compound addition, media was removed and 30 μl of 1× lysis buffer was added to each well for 30 minutes. To each well 45 μl of Dual-Glo Luciferase reagent (Promega) were added and after 1 second delay Luciferase was detected for 1 second using Mithras LB940 instrument. After Firefly luciferase quantification 45 μl of Dual Stop & Glo reagent (Promega) were added to each well and […] Renilla was detected using the same parameters described before.
Data were expressed as % of control for Firefly and Renilla luciferase independently; values were calculated using XLFit version 4.2, with a four parameters sigmoid function (XLFit model 205).

| SMILES | IC50 [nM] |
| --- | --- |
| COc1ccc2c(c1)n(C[C@H]1CC[C@H](C(=O)N3CCC4(CC3)OCCO4)CC1)c(=O)n2C [Example 86] | 35 to 23000 |
| CN(C)CCN(C)c1ccc2c(n1)n(C[C@H]1CC[C@H](C(=O)Nc3ccncc3)CC1)c(=O)n2C [Example 5, Trans-4-{5-[(2-Dimethylamino-ethyl)-methyl-amino]-1-methyl-2-oxo-1,2-dihydro-imidazo[4,5-b]pyridin-3-ylmethyl}-cyclohexanecarboxylic acid pyridin-4-ylamide] | 35 to 23000 |
| COCCN(C)c1ncc2c(n1)n(C[C@H]1CC[C@H](C(=O)Nc3ccncc3)CC1)c(=O)n2C [Example 8, Trans-4-{2-[(2-Methoxy-ethyl)-methyl-amino]-7-methyl-8-oxo-7,8-dihydro-purin-9-ylmethyl}-cyclohexanecarboxylic acid pyridine-4-ylamide] | 35 to 23000 |

Same assay, conditions: Homo sapiens, TCF-Luciferase (Firefly) read out, 24 hours after compound addition, range given with mixed units nM and μM, read-out: IC50 value in the reporter assay

| SMILES | IC50 [nM] |
| --- | --- |
| COc1ccc2c(c1)n(C[C@H]1CC[C@H](C(=O)Nc3ccnc(C)c3)CC1)c(=O)n2C [Example 33] | 35 to 23000 |
| COCCOc1ccc2c(n1)n(C[C@H]1CC[C@H](C(=O)Nc3ccnnc3)CC1)c(=O)n2C [Example 173] | 35 to 23000 |
| Cn1c(=O)n(C[C@H]2CC[C@H](C(=O)Nc3ccncc3)CC2)c2nc(C3CC3)ccc21 [Example 170] | 35 to 23000 |
| Cn1c(=O)n(C[C@H]2CC[C@H](C(=O)Nc3ccncc3)CC2)c2nc(OCc3ccccn3)ccc21 [Example 156] | 35 to 23000 |
| Cn1c(=O)n(C[C@H]2CC[C@H](C(=O)N3CCN(c4nccs4)CC3)CC2)c2cccc(Cl)c21 [Example 56] | 35 to 23000 |
| COc1cc2c(cc1Cl)n(C[C@H]1CC[C@H](C(=O)N3CCN(c4ncccn4)CC3)CC1)c(=O)n2C [Example 46] | 35 to 23000 |
| COc1ccc(-c2nc([C@H]3CC[C@H](Cn4c(=O)n(C)c5ccc(OC)cc54)CC3)no2)cc1 [Example 18, 5-Methoxy-3-{trans-4-[5-(4-methoxy-phenyl)[1,2,4]oxadiazol-3-yl]-cyclohexylmethyl}-1-methyl-1,3-dihydro-benzoimidazol-2-one] | 35 to 23000 |
| Cn1c(=O)n(C[C@H]2CC[C@H](C(=O)Nc3ccnc(N4CCOCC4)c3)CC2)c2cc(Cl)ccc21 [Example 41] | 35 to 23000 |
| Cn1c(=O)n(C[C@H]2CC[C@H](C(=O)Nc3ccncc3)CC2)c2c(Cl)cccc21 [Example 28] | 35 to 23000 |
| Cn1c(=O)n(C[C@H]2CC[C@H](C(=O)Nc3ccncc3)CC2)c2nc(OCC3CCCCO3)ccc21 (stereo partly drawn) [Example 168] | 35 to 23000 |
| Cn1c(=O)n(C[C@H]2CC[C@H](C(=O)Nc3ccnc(N4CCOCC4)c3)CC2)c2cccc(Cl)c21 [Example 43] | 35 to 23000 |
| CCC(=O)CN1CCN(C(=O)[C@H]2CC[C@H](Cn3c(=O)n(C)c4ccc(OC)cc43)CC2)CC1=O [Example 7, 5-Methoxy-1-methyl-3-{trans-4-[3-oxo-4-(2-oxo-butyl)-piperazine-1-carbonyl]-cyclohexylmethyl}-1,3-dihydro-benzoimidazol-2-one] | 35 to 23000 |
| Cc1cnccc1NC(=O)[C@H]1CC[C@H](Cn2c(=O)n(C)c3ccc(C4CC4)cc32)CC1 [Example 70] | 35 to 23000 |
| Cn1c(=O)n(C[C@H]2CC[C@H](C(=O)Nc3ccncc3)CC2)c2nc(NCc3cccnc3)ccc21 [Example 126] | 35 to 23000 |
| COc1ccc2c(c1)n(C[C@H]1CC[C@H](c3nnc(-c4ccn(C)n4)o3)CC1)c(=O)n2C [Example 110] | 35 to 23000 |
| CCOCc1nnc([C@H]2CC[C@H](Cn3c(=O)n(C)c4ccc(OC)cc43)CC2)o1 [Example 107] | 35 to 23000 |
| COc1ccc2c(c1)n(C[C@H]1CC[C@H](c3nnc(C4CCOCC4)o3)CC1)c(=O)n2C [Example 145] | 35 to 23000 |
| COc1ccc2c(c1)n(C[C@H]1CC[C@H](c3nnc(-c4cc(C)on4)o3)CC1)c(=O)n2C [Example 131] | 35 to 23000 |
| COc1ccc2c(c1)n(C[C@H]1CC[C@H](c3nnc(-c4cccnc4)o3)CC1)c(=O)n2C [Example 96] | 35 to 23000 |
| COc1ccc2c(c1)n(C[C@H]1CC[C@H](C(=O)N3CCN(c4ccncc4)CC3)CC1)c(=O)n2C [Example 76] | 35 to 23000 |
| COCCOc1cc2c(cc1F)n(C)c(=O)n2C[C@H]1CC[C@H](C(=O)N2CCOCC2)CC1 [Example 177] | 35 to 23000 |
| COc1ccc2c(c1)n(C[C@H]1CC[C@H](C(=O)Nc3cccc4ncccc34)CC1)c(=O)n2C [Example 188] | 35 to 23000 |
| COc1ccc2c(c1)n(C[C@H]1CC[C@H](C(=O)Nc3ccc(N4C[C@@H](C)O[C@@H](C)C4)nc3)CC1)c(=O)n2C [Example 64] | 35 to 23000 |
| Cn1c(=O)n(C[C@H]2CC[C@H](C(=O)N3CCN(c4nccs4)CC3)CC2)c2ccc(Cl)cc21 [Example 54] | 35 to 23000 |
| COc1ccc2c(c1)n(C[C@H]1CC[C@H](C(=O)N3CCN(c4cc(C)nc(C)c4)CC3)CC1)c(=O)n2C [Example 94] | 35 to 23000 |
| COc1ccc2c(c1)n(C[C@H]1CC[C@H](C(=O)N3CCN(c4ccn(C)n4)CC3)CC1)c(=O)n2C [Example 132] | 35 to 23000 |

| SMILES | IC50 [nM] |
| --- | --- |
| COc1ccc(COc2ccc3c(c2)n(C[C@H]2CC[C@H](C(=O)Nc4ccncc4)CC2)c(=O)n3C)cc1 [Example 6, Trans-4-[6-(4-Methoxy-benzyloxy)-3-methyl-2-oxo-2,3-dihydro-benzoimidazol-1-ylmethyl]-cyclohexanecarboxylic acid pyridin-4-ylamide] | 35 to 23000 |
| COc1ccc2c(c1)n(C[C@H]1CC[C@H](C(=O)N3CCC(C(C)=O)CC3)CC1)c(=O)n2C [Example 81] | 35 to 23000 |
| COc1ccc2c(c1)n(C[C@H]1CC[C@H](C(=O)N3CC4(COC4)C3)CC1)c(=O)n2C [Example 95] | 35 to 23000 |
| COc1ccc2c(c1)n(C[C@H]1CC[C@H](C(=O)N3CCC(c4ncccn4)CC3)CC1)c(=O)n2C [Example 82] | 35 to 23000 |
| COc1ccc2c(c1)n(C[C@H]1CC[C@H](c3c[nH]c(NC(C)=O)n3)CC1)c(=O)n2C [Example 19, N-{4-[trans-4-(6-Methoxy-3-methyl-2-oxo-2,3-dihydro-benzoimidazol-1-ylmethyl)-cyclohexyl]-1H-imidazol-2-yl}-acetamide] | 35 to 23000 |
| COc1ccc2c(c1)n(C[C@H]1CC[C@H](C(=O)N3CCN(c4ccnc(OC)c4)CC3)CC1)c(=O)n2C [Example 91] | 35 to 23000 |
| COCCOc1cc(NC(=O)[C@H]2CC[C@H](Cn3c(=O)n(C)c4cc(Cl)ccc43)CC2)ccn1 [Example 57] | 35 to 23000 |
| Cn1c(=O)n(C[C@H]2CC[C@H](C(=O)N3CCN(c4ccncc4)CC3)CC2)c2cc(C(F)(F)F)ccc21 [Example 73] | 35 to 23000 |
| COCCNc1ccc2c(c1)n(C[C@H]1CC[C@H](C(=O)N3CCN(C(C)=O)CC3)CC1)c(=O)n2C [Example 15, 3-[trans-4-(4-Acetyl-piperazine-1-carbonyl)-cyclohexylmethyl]-5-(2-methoxy-ethylamino)-1-methyl-1,3-dihydro-benzoimidazol-2-one] | 35 to 23000 |
| COc1cc2c(cc1F)n(C)c(=O)n2C[C@H]1CC[C@H](C(=O)Nc2ccnnc2)CC1 [Example 169] | 35 to 23000 |
| CN(C)CC#Cc1ccc2c(n1)n(C[C@H]1CC[C@H](C(=O)Nc3ccncc3)CC1)c(=O)n2C [Example 119] | 35 to 23000 |
| COc1ccc2c(c1)n(C[C@H]1CC[C@H](C(=O)Nc3ccnc(Cl)c3)CC1)c(=O)n2C [Example 32] | 35 to 23000 |
| COC/C=C/c1ccc2c(c1)n(C[C@H]1CC[C@H](C(=O)Nc3ccncc3)CC1)c(=O)n2C [Example 113] | 35 to 23000 |
| Cn1ccc(N2CCN(C(=O)[C@H]3CC[C@H](Cn4c(=O)n(C)c5ccc(=O)[nH]c54)CC3)CC2)n1 [Example 134] | 35 to 23000 |
| COc1cc2c(cc1F)n(C)c(=O)n2C[C@H]1CC[C@H](C(=O)N2C[C@@H](C)O[C@@H](C)C2)CC1 [Example 179] | 35 to 23000 |
| COc1ccc2c(c1)n(C[C@H]1CC[C@H](C(=O)Nc3ccncc3C)CC1)c(=O)n2C [Example 30] | 35 to 23000 |
| Cn1cc(C2=CCN(C(=O)[C@H]3CC[C@H](Cn4c(=O)n(C)c5ccc(OC(F)F)cc54)CC3)CC2)cn1 [Example 166] | 35 to 23000 |
| Cn1c(=O)n(C[C@H]2CC[C@H](C(=O)N3CCN(c4nccs4)CC3)CC2)c2cc(C(F)(F)F)ccc21 [Example 24] | 35 to 23000 |
| COc1ccc2c(c1)n(C[C@H]1CC[C@H](C(=O)N3CCN(c4cnccn4)CC3)CC1)c(=O)n2C [Example 60] | 35 to 23000 |
| Cn1c(=O)n(C[C@H]2CC[C@H](C(=O)Nc3ccnnc3)CC2)c2[nH]c(=O)ccc21 [Example 9, Trans-4-(1-Methyl-2,5-dioxo-1,2,4,5-tetrahydro-imidazo[4,5-b]pyridin-3-ylmethyl)-cyclohexanecarboxylic acid pyridazin-4-ylamide] | 35 to 23000 |
| Cn1c(=O)n(C[C@H]2CC[C@H](C(=O)Nc3ccncc3)CC2)c2[nH]c(=O)ccc21 [Example 139] | 35 to 23000 |
| COc1ccc2c(c1)n(C[C@H]1CC[C@H](C(=O)Nc3ccncn3)CC1)c(=O)n2C [Example 104] | 35 to 23000 |
| COc1ccc2c(c1)n(C[C@H]1CC[C@H](C(=O)N3CCC(F)(F)C3)CC1)c(=O)n2C [Example 44] | 35 to 23000 |
| COc1ccc2c(c1)n(C[C@H]1CC[C@H](C(=O)N3CCN(c4ccc(C(F)(F)F)nc4)CC3)CC1)c(=O)n2C [Example 90] | 35 to 23000 |
| COCCOc1ccc2c(n1)n(C[C@H]1CC[C@H](c3nnc(-c4cnn(C)c4)o3)CC1)c(=O)n2C [Example 180] | 35 to 23000 |
